Assay results: PMC7156458, “Synthetic biology based construction of biological activity-related library of fungal decalin-containing diterpenoid pyrones” (Nature Communications, 2020)

Target: Aβ42 (Homo sapiens, UniProt P05067)
Experiment: Th-T (thioflavin-T) assay of Aβ42 aggregation
Type: biochemical
Settings: for Th-T assay plate reading, mean of three wells (Supplementary Fig. 47): source data, Ab alone and No Ab as controls

Aβ42, sequence (P05067 672-713): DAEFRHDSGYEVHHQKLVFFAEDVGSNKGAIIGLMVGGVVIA

C=C1CCC2C(C)(CCC=C(C)C)C(=O)CCC2(C)C1Cc1c(O)c(C)c(C)oc1=O (stereo not shown) [Compound 8]
Th-T fluorescence, mean of three wells (Aβ42 aggregation time course, reading M118): 2.194 | Th-T fluorescence, mean of three wells (Aβ42 aggregation time course, reading M119): 2.214 | Th-T fluorescence, mean of three wells (Aβ42 aggregation time course, reading M120): 2.225 | Th-T fluorescence, mean of three wells (Aβ42 aggregation time course, reading M121): 2.184 | Th-T fluorescence, mean of three wells (Aβ42 aggregation time course, reading M122): 2.1853 | Th-T fluorescence, mean of three wells (Aβ42 aggregation time course, reading M123): 2.186 | Th-T fluorescence, mean of three wells (Aβ42 aggregation time course, reading M124): 2.207 | Th-T fluorescence, mean of three wells (Aβ42 aggregation time course, reading M125): 2.241 | Th-T fluorescence, mean of three wells (Aβ42 aggregation time course, reading M126): 2.218 | Th-T fluorescence, mean of three wells (Aβ42 aggregation time course, reading M127): 2.187 | Th-T fluorescence, mean of three wells (Aβ42 aggregation time course, reading M128): 2.217 | Th-T fluorescence, mean of three wells (Aβ42 aggregation time course, reading M129): 2.196 | Th-T fluorescence, mean of three wells (Aβ42 aggregation time course, reading M130): 2.222 | Th-T fluorescence, mean of three wells (Aβ42 aggregation time course, reading M131): 2.189 | Th-T fluorescence, mean of three wells (Aβ42 aggregation time course, reading M132): 2.211 | Th-T fluorescence, mean of three wells (Aβ42 aggregation time course, reading M133): 2.1957 | Th-T fluorescence, mean of three wells (Aβ42 aggregation time course, reading M134): 2.2077 | Th-T fluorescence, mean of three wells (Aβ42 aggregation time course, reading M135): 2.191 | Th-T fluorescence, mean of three wells (Aβ42 aggregation time course, reading M136): 2.198 | Th-T fluorescence, mean of three wells (Supplementary Fig. 47, reading M138): 2.179 | Th-T fluorescence, mean of three wells (Supplementary Fig. 47, reading M139): 2.196 | Th-T fluorescence, mean of three wells (Supplementary Fig. 47, reading M140): 2.2093 | Th-T fluorescence, mean of three wells (Supplementary Fig. 47, reading M141): 2.191 | Th-T fluorescence, mean of three wells (Supplementary Fig. 47, reading M142): 2.182 | Th-T fluorescence, mean of three wells (Supplementary Fig. 47, reading M143): 2.202 | Th-T fluorescence, mean of three wells (Supplementary Fig. 47, reading M144): 2.22 | Th-T fluorescence, mean of three wells (Supplementary Fig. 47, reading M145): 2.173 | Th-T fluorescence, mean of three wells (Supplementary Fig. 47 source data, measurement M38 of time course): 2.163 | Th-T fluorescence, mean of three wells (Supplementary Fig. 47 source data, measurement M39 of time course): 2.1439 | Th-T fluorescence, mean of three wells (Supplementary Fig. 47 source data, measurement M40 of time course): 2.183 | Th-T fluorescence, mean of three wells (Supplementary Fig. 47 source data, measurement M41 of time course): 2.185 | Th-T fluorescence, mean of three wells (Supplementary Fig. 47 source data, measurement M42 of time course): 2.198 | Th-T fluorescence, mean of three wells (Supplementary Fig. 47 source data, measurement M43 of time course): 2.197 | Th-T fluorescence, mean of three wells (Supplementary Fig. 47 source data, measurement M44 of time course): 2.1886 | Th-T fluorescence, mean of three wells (Supplementary Fig. 47 source data, measurement M45 of time course): 2.191 | Th-T fluorescence, mean of three wells (Supplementary Fig. 47 source data, measurement M46 of time course): 2.181 | Th-T fluorescence, mean of three wells (Supplementary Fig. 47 source data, measurement M47 of time course): 2.191 | Th-T fluorescence, mean of three wells (Supplementary Fig. 47 source data, measurement M48 of time course): 2.202 | Th-T fluorescence, mean of three wells (Supplementary Fig. 47 source data, measurement M49 of time course): 2.2088 | Th-T fluorescence, mean of three wells (Supplementary Fig. 47 source data, measurement M50 of time course): 2.229 | Th-T fluorescence, mean of three wells (Supplementary Fig. 47 source data, measurement M51 of time course): 2.215 | Th-T fluorescence, mean of three wells (Supplementary Fig. 47 source data, measurement M52 of time course): 2.214 | Th-T fluorescence, mean of three wells (Supplementary Fig. 47 source data, measurement M53 of time course): 2.236 | Th-T fluorescence, mean of three wells (Supplementary Fig. 47 source data, measurement M54 of time course): 2.223 | Th-T fluorescence, mean of three wells (Supplementary Fig. 47 source data, measurement M55 of time course): 2.205 | Th-T fluorescence, mean of three wells (Supplementary Fig. 47 source data, measurement M56 of time course): 2.204 | Th-T assay plate reading, mean of three wells (Supplementary Fig. 47) (measurement M2): 0.2095 | Th-T assay plate reading, mean of three wells (Supplementary Fig. 47) (measurement M3): 0.2324 | Th-T assay plate reading, mean of three wells (Supplementary Fig. 47) (measurement M4): 0.2683 | Th-T assay plate reading, mean of three wells (Supplementary Fig. 47) (measurement M5): 0.2913 | Th-T assay plate reading, mean of three wells (Supplementary Fig. 47) (measurement M6): 0.3294 | Th-T assay plate reading, mean of three wells (Supplementary Fig. 47) (measurement M7): 0.3614 | Th-T assay plate reading, mean of three wells (Supplementary Fig. 47) (measurement M8): 0.4027 | Th-T assay plate reading, mean of three wells (Supplementary Fig. 47) (measurement M9): 0.444 | Th-T assay plate reading, mean of three wells (Supplementary Fig. 47) (measurement M10): 0.4702 | Th-T assay plate reading, mean of three wells (Supplementary Fig. 47) (measurement M11): 0.5005 | Th-T assay plate reading, mean of three wells (Supplementary Fig. 47) (measurement M12): 0.5205 | Th-T assay plate reading, mean of three wells (Supplementary Fig. 47) (measurement M13): 0.553 | Th-T assay plate reading, mean of three wells (Supplementary Fig. 47) (measurement M14): 0.605 | Th-T assay plate reading, mean of three wells (Supplementary Fig. 47) (measurement M15): 0.733 | Th-T assay plate reading, mean of three wells (Supplementary Fig. 47) (measurement M16): 0.9658 | Th-T fluorescence, mean of three wells (reading M18, Supplementary Fig. 47 source data): 1.528 | Th-T fluorescence, mean of three wells (reading M19, Supplementary Fig. 47 source data): 1.697 | Th-T fluorescence, mean of three wells (reading M20, Supplementary Fig. 47 source data): 1.804 | Th-T fluorescence, mean of three wells (reading M21, Supplementary Fig. 47 source data): 1.844 | Th-T fluorescence, mean of three wells (reading M22, Supplementary Fig. 47 source data): 1.86 | Th-T fluorescence, mean of three wells (reading M23, Supplementary Fig. 47 source data): 1.891 | Th-T fluorescence, mean of three wells (reading M24, Supplementary Fig. 47 source data): 1.925 | Th-T fluorescence, mean of three wells (reading M25, Supplementary Fig. 47 source data): 1.959 | Th-T fluorescence, mean of three wells (reading M26, Supplementary Fig. 47 source data): 2.003 | Th-T fluorescence, mean of three wells (reading M27, Supplementary Fig. 47 source data): 2.003 | Th-T fluorescence, mean of three wells (reading M28, Supplementary Fig. 47 source data): 2.0134 | Th-T fluorescence, mean of three wells (reading M29, Supplementary Fig. 47 source data): 2.048 | Th-T fluorescence, mean of three wells (reading M30, Supplementary Fig. 47 source data): 2.063 | Th-T fluorescence, mean of three wells (reading M31, Supplementary Fig. 47 source data): 2.093 | Th-T fluorescence, mean of three wells (reading M32, Supplementary Fig. 47 source data): 2.109 | Th-T fluorescence, mean of three wells (reading M33, Supplementary Fig. 47 source data): 2.135 | Th-T fluorescence, mean of three wells (reading M34, Supplementary Fig. 47 source data): 2.108 | Th-T fluorescence, mean of three wells (reading M35, Supplementary Fig. 47 source data): 2.139 | Th-T fluorescence, mean of three wells (reading M36, Supplementary Fig. 47 source data): 2.159 | Th-T fluorescence, mean of three wells (time course, reading M58): 2.216 | Th-T fluorescence, mean of three wells (time course, reading M59): 2.2236 | Th-T fluorescence, mean of three wells (time course, reading M60): 2.219 | Th-T fluorescence, mean of three wells (time course, reading M61): 2.226 | Th-T fluorescence, mean of three wells (time course, reading M62): 2.227 | Th-T fluorescence, mean of three wells (time course, reading M63): 2.25 | Th-T fluorescence, mean of three wells (time course, reading M64): 2.223 | Th-T fluorescence, mean of three wells (time course, reading M65): 2.24 | Th-T fluorescence, mean of three wells (time course, reading M66): 2.247 | Th-T fluorescence, mean of three wells (time course, reading M67): 2.214 | Th-T fluorescence, mean of three wells (time course, reading M68): 2.201 | Th-T fluorescence, mean of three wells (time course, reading M69): 2.2304 | Th-T fluorescence, mean of three wells (time course, reading M70): 2.212 | Th-T fluorescence, mean of three wells (time course, reading M71): 2.214 | Th-T fluorescence, mean of three wells (time course, reading M72): 2.213 | Th-T fluorescence, mean of three wells (time course, reading M73): 2.224 | Th-T fluorescence, mean of three wells (time-course reading M98, Supplementary Fig. 47 source data): 2.211 | Th-T fluorescence, mean of three wells (time-course reading M99, Supplementary Fig. 47 source data): 2.236 | Th-T fluorescence, mean of three wells (time-course reading M100, Supplementary Fig. 47 source data): 2.235 | Th-T fluorescence, mean of three wells (time-course reading M101, Supplementary Fig. 47 source data): 2.216 | Th-T fluorescence, mean of three wells (time-course reading M102, Supplementary Fig. 47 source data): 2.236 | Th-T fluorescence, mean of three wells (time-course reading M103, Supplementary Fig. 47 source data): 2.209 | Th-T fluorescence, mean of three wells (time-course reading M104, Supplementary Fig. 47 source data): 2.206 | Th-T fluorescence, mean of three wells (time-course reading M105, Supplementary Fig. 47 source data): 2.201 | Th-T fluorescence, mean of three wells (time-course reading M106, Supplementary Fig. 47 source data): 2.237 | Th-T fluorescence, mean of three wells (time-course reading M107, Supplementary Fig. 47 source data): 2.2129 | Th-T fluorescence, mean of three wells (time-course reading M108, Supplementary Fig. 47 source data): 2.1995 | Th-T fluorescence, mean of three wells (time-course reading M109, Supplementary Fig. 47 source data): 2.203 | Th-T fluorescence, mean of three wells (time-course reading M110, Supplementary Fig. 47 source data): 2.217 | Th-T fluorescence, mean of three wells (time-course reading M111, Supplementary Fig. 47 source data): 2.201 | Th-T fluorescence, mean of three wells (time-course reading M112, Supplementary Fig. 47 source data): 2.214 | Th-T fluorescence, mean of three wells (time-course reading M113, Supplementary Fig. 47 source data): 2.2232 | Th-T fluorescence, mean of three wells (time-course reading M114, Supplementary Fig. 47 source data): 2.196 | Th-T fluorescence, mean of three wells (time-course reading M115, Supplementary Fig. 47 source data): 2.1937 | Th-T fluorescence, mean of three wells (time-course reading M116, Supplementary Fig. 47 source data): 2.237
